The text below walks through data of PubChem BioAssay (NCI).

Holding throughout (test): NCI tumour cell line growth inhibition, 48 h
The subject of assay [1] is A549 NSCLC.
Assay [2] deals with BT-549 breast.
In assay [3] the test system is DU-145 prostate.
In assay [4] the test system is HCT-15 colon.
The subject of assay [5] is M14 melanoma.
The subject of assay [6] is NCI-H23 lung.
Assay [7] relates to OVCAR-8 ovarian.
Assay [8] deals with SF-268 CNS.
Assay [9] concerns SF-539 CNS.
Assay [10] relates to SK-OV-3 ovarian.

Where “and” joins values, the source holds several entries; their conditions need not be identical. Identical values can stand only once.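 Growth conditions: 96-well plates. Treatment: test compound, 48 hours, 5 concentrations. Analysis: linear interpolation between bracketing concentrations; unreached endpoints set to highest concentration. GI50: concentration for 50% inhibition of growth. Definition used: TGI = concentration required for complete inhibition of growth.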

For `O=S(=O)(NC1=NCCN1C(=S)SN1CCn2c1nsc2=S)c1ccc(Cl)cc1`, the GI50 in assay [1] was 12.8 µM; in assay [2], 2.28 µM; in [3], 7.9 µM; in assay [4], 11.9 µM; in assay [5], 12.9 µM; in assay [6], 14.4 µM. The figures for the GI50 in assay [7], in assay [8] and in assay [9] were 7.13 µM, 6.5 µM and 1.47 µM, respectively. Moreover, the TGI in assay [1] turned out to be 37.8 µM; in [2] it was 6.48 µM; in assay [3], 30.9 µM; in assay [4], 28.2 µM; in [5], 32.5 µM; in [6], 32.6 µM. For the same molecule, the figures for the TGI in assay [7], in [8] and in assay [9] were > 100 µM, 28 µM and 3.12 µM, respectively.

`COC1(OC)C2(Cl)C3=CCCC=C3C1(Cl)C(Cl)=C2Cl`: the TGI in assay [1] is > 100 µM; in [4], > 100 µM; in assay [5] it was 31.4 µM; in assay [6], 62.2 µM; in assay [7] it was > 100 µM; in assay [8] it was > 100 µM. Further, the results for the TGI in assay [9] and in assay [10] were > 100 µM and 72.6 µM, respectively.

In the case of `COc1cc(C)c2c(c1)CN1CN2Cc2cc(OC)cc(C)c21`, the TGI in assay [1], in assay [4], in assay [5], in assay [6], in assay [7] and in assay [8] was > 100 µM each time. Moreover, the TGI in assay [9] and in [10] was > 100 µM throughout.

As to `Cc1cccc(C)c1NC(=O)C(=O)Cc1nc2ccccc2s1`, the TGI in assay [1], in assay [4], in [5], in assay [6], in assay [7] and in assay [8] was > 100 µM each time. For the same molecule, the TGI in assay [9] and in assay [10] was > 100 µM in each case.

Regarding `Cn1c(=O)oc2cc(C3CCC(=O)N3Cc3csc(-c4ccccc4)n3)ccc21` (centres undefined), the TGI in assay [1], in assay [4], in [5], in [6], in [7] and in assay [8] was > 100 µM throughout. The TGI in assay [9] and in assay [10] was > 100 µM in each case.

For `Cc1cc(Cl)ccc1NC(=O)CCCC(=O)C1C/C(=N/O)CC/C1=N\O` (centres undefined), the TGI in assay [1], in assay [4], in assay [5], in assay [6], in assay [7] and in [8] was > 100 µM each time. The TGI in assay [9] and in [10] was > 100 µM throughout.

In the case of `O=c1c(Cc2ccccc2)c(O)cc2n1CCC2`, the TGI in [1], in assay [4], in assay [5], in assay [6], in [7] and in [8] was > 100 µM throughout. Also, the TGI in [9] and in [10] was > 100 µM each time.

`CC(C)Cc1cnc(CC(C)C)c(=O)[nH]1`: the TGI in assay [1], in [2], in assay [3], in assay [4], in assay [5] and in assay [6] was > 100 µM in each case. The TGI in assay [7], in [8] and in assay [10] was > 100 µM throughout.

`CCOc1c(Br)cc(Br)cc1C=C(C#N)C#N`: the TGI in assay [1] is > 10 µM; in assay [4], > 10 µM; in assay [6], > 10 µM; in [7] it was > 10 µM; in [8] it was > 10 µM; in [9], 6.21 µM. In addition, the TGI in [10] is > 10 µM.

Regarding `CN1CCCC2[C@@H]3CCC4c5nonc5CC[C@]4(C)C3CC[C@@]21C` (some centres undefined), the TGI in assay [1], in assay [4], in assay [6], in [7], in assay [9] and in assay [10] was > 100 µM throughout.

`O=c1[nH]ccc(CNC23CC4CC(CC(C4)C2)C3)c1O`: the TGI in [1], in assay [4], in assay [5], in assay [6], in assay [7] and in [9] was > 100 µM each time. For the same molecule, in assay [10], the TGI is > 100 µM.

For the molecule `Cc1cc2c(c(C(=O)O)c1C)-c1cccc(Cl)c1C2=O`, the TGI in [1], in [4], in [5], in [6], in [7] and in assay [8] was > 100 µM throughout. For the same molecule, the TGI in [10] is > 100 µM.

As for `OCc1ccc(N(Cc2ccc(F)cc2)Cc2ccc(F)cc2)cc1Cl`, the GI50 in [1] is 6.72 µM; in assay [2], 13.5 µM; in [4], 9.88 µM; in [5], 5.79 µM; in [6] it was 7.95 µM; in assay [7], 12.5 µM. Besides, the GI50 is 12.4 µM in [8], 15.7 µM in assay [9] and 13.6 µM in [10]. Further, the TGI in assay [1] is 22.1 µM; in assay [2] it was 28.4 µM; in assay [4], 24.2 µM; in assay [5], 20.2 µM; in assay [6] it was 24.3 µM; in assay [7] it was 27.8 µM. In addition, the TGI came to 26.9 µM in assay [8], 30 µM in [9] and 26.5 µM in [10].

With `OCC(O)C(O)C(O)C(/C=N\Nc1ncnc2c(Br)cc(Br)cc12)=N/Nc1ncnc2c(Br)cc(Br)cc12` (centres undefined), the GI50 is 5.04 µM and 15.4 µM in assay [1]; 11.7 µM and 3.76 µM in assay [7]. For the same molecule, the TGI in assay [1] was 21.6 µM and > 100 µM; in [3], 14.7 µM and > 100 µM; in [5] it was 28.3 µM and 44.2 µM; in assay [7], 28.3 µM and > 100 µM; in assay [8], 11.9 µM and > 100 µM; in assay [9] it was 33.9 µM. Further, in [10], the TGI was 10 µM and > 100 µM.
